From ChEMBL document CHEMBL1145498, “A systematic interaction map of validated kinase inhibitors with Ser/Thr kinases” (Proc Natl Acad Sci U S A, 2007) come the findings set out here.

Experiment [1] has as its target Serine/threonine-protein kinase 10 (Homo sapiens) (UniProt O94804).
The target of experiment [2] is Serine/threonine-protein kinase pim-2 (Homo sapiens, UniProt Q9P1W9).
In experiment [3] the target is Serine/threonine-protein kinase Chk2 (Homo sapiens, UniProt O96017).
For experiment [4], the target named is Serine/threonine-protein kinase PAK 5 (Homo sapiens) (UniProt Q9P286).
Sequence of Serine/threonine-protein kinase PAK 5 (Homo sapiens) (Q9P286 whole entry, looked up): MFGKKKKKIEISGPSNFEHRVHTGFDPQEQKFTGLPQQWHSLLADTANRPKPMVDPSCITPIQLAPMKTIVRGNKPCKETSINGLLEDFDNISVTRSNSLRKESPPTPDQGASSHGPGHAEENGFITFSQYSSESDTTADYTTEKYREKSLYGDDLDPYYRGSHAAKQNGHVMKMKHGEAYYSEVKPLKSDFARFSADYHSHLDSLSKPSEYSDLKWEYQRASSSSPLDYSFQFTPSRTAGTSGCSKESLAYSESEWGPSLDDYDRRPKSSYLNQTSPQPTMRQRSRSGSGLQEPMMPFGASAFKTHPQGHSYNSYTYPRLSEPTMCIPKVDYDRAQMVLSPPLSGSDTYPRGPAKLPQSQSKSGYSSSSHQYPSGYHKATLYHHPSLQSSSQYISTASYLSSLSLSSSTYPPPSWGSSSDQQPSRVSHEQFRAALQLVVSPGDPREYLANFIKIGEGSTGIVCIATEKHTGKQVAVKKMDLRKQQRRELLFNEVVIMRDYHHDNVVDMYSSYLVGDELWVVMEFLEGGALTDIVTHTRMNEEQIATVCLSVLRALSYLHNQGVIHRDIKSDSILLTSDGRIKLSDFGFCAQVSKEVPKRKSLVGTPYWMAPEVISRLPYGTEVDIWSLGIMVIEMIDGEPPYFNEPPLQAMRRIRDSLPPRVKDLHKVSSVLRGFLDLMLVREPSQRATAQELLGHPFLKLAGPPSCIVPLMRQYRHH
In experiment [5] the target is T1, Serine/threonine-protein kinase VRK3 (Homo sapiens) (UniProt Q8IV63).
T1 sequence (whole entry): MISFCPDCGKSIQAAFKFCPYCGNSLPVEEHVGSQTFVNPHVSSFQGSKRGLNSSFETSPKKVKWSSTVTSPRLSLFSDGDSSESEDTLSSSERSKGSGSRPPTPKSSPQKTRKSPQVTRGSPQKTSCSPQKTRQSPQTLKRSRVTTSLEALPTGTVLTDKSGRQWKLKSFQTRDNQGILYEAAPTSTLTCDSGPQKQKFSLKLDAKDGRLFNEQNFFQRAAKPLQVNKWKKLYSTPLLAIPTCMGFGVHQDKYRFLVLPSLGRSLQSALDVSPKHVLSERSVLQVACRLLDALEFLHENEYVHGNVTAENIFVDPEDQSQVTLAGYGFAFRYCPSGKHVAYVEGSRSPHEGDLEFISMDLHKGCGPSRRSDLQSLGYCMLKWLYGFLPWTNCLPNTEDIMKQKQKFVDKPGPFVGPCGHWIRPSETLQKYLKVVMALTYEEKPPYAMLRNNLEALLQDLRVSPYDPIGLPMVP

Experiment [6] concerns the target Serine/threonine-protein kinase 26 (Homo sapiens) (UniProt Q9P289).
The target in experiment [7] is Cyclin-dependent kinase-like 1 (Homo sapiens) (UniProt Q00532).
For experiment [8], the target named is Dual specificity protein kinase CLK3 (Homo sapiens) (UniProt P49761).
Sequence of Dual specificity protein kinase CLK3 (Homo sapiens) (P49761 whole entry, looked up): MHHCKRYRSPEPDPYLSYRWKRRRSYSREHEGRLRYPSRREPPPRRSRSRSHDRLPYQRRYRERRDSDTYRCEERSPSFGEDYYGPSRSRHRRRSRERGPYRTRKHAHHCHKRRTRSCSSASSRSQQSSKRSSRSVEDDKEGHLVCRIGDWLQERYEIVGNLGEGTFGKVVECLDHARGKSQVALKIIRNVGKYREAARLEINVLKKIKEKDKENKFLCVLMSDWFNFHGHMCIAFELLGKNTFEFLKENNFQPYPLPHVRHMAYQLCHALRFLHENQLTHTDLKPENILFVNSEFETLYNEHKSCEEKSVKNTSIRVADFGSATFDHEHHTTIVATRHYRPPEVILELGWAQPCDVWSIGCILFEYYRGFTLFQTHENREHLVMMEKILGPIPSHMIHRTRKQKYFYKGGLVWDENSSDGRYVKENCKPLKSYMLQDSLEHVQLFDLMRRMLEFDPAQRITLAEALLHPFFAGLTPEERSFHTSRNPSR
In experiment [9] the target is Cyclin-dependent kinase 2 (Homo sapiens, UniProt P24941).
The target of experiment [10] is Serine/threonine-protein kinase pim-1 (Homo sapiens) (UniProt P11309).
Sequence of Serine/threonine-protein kinase pim-1 (Homo sapiens) (P11309 whole entry, looked up): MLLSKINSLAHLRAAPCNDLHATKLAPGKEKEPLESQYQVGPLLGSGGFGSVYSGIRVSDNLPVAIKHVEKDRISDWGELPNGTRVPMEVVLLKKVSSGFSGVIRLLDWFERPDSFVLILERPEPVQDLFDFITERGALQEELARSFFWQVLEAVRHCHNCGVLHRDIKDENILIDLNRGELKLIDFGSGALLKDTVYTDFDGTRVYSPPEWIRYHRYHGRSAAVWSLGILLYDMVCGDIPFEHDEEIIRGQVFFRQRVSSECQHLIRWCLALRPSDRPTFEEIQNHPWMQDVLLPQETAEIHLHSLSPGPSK
The target of experiment [11] is 5'-AMP-activated protein kinase catalytic subunit alpha-2 (Homo sapiens) (UniProt P54646).
Experiment [12] addresses Casein kinase I isoform gamma-2 (Homo sapiens) (UniProt P78368).
Experiment [13] deals with Calcium/calmodulin-dependent protein kinase type II subunit alpha (Homo sapiens) (UniProt Q9UQM7).
Sequence of Calcium/calmodulin-dependent protein kinase type II subunit alpha (Homo sapiens) (Q9UQM7 whole entry): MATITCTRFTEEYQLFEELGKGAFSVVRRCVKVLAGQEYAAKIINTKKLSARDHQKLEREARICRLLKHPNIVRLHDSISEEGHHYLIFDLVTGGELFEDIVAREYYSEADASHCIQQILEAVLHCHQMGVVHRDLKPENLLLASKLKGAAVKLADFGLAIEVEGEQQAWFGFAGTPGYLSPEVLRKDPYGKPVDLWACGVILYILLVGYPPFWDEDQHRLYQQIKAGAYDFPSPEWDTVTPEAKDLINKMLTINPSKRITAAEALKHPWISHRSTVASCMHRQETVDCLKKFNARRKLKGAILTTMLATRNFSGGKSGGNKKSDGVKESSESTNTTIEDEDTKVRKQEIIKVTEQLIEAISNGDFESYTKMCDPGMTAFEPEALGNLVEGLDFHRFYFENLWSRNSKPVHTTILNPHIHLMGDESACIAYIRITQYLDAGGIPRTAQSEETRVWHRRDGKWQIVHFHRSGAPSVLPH
Experiment [14] has as its target T2, Serine/threonine-protein kinase 17A (Homo sapiens) (UniProt Q9UEE5).
T2 sequence (whole entry): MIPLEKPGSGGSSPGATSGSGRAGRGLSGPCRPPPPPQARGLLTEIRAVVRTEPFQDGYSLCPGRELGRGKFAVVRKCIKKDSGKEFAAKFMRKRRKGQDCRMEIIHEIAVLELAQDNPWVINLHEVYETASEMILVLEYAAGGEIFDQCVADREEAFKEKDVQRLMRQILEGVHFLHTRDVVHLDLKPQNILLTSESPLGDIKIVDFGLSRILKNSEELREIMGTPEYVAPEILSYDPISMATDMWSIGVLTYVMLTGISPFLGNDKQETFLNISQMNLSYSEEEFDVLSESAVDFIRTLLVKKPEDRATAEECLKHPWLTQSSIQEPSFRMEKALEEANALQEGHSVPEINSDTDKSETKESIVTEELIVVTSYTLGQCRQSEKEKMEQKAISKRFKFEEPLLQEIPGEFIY

For experiment [15], the target named is T3, Serine/threonine-protein kinase PLK4 (Homo sapiens) (UniProt O00444).
T3 sequence (whole entry): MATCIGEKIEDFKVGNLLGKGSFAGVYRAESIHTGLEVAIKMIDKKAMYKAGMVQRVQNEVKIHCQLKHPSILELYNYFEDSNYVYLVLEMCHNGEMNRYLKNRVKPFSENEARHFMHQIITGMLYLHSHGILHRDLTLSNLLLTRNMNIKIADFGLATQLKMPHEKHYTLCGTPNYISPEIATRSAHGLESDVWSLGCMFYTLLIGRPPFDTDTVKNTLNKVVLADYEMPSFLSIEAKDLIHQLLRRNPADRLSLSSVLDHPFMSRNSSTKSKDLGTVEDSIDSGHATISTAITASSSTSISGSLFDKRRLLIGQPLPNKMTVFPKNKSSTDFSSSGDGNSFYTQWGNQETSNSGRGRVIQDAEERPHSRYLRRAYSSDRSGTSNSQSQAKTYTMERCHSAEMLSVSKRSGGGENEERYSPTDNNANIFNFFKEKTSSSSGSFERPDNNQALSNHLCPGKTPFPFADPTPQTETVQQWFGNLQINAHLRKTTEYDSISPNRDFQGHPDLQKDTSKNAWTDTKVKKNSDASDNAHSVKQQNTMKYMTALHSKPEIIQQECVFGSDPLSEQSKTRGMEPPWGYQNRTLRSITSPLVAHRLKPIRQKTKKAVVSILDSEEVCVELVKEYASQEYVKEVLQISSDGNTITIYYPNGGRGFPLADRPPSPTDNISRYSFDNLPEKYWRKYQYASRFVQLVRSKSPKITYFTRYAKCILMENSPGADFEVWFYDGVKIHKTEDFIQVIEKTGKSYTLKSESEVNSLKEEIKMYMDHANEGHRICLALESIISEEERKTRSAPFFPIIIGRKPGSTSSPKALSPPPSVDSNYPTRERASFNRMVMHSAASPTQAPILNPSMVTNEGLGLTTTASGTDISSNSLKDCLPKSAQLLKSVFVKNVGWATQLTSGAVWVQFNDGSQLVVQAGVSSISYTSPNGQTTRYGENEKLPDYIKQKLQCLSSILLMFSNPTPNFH

The target of experiment [16] is Mitogen-activated protein kinase 6 (Homo sapiens) (UniProt Q16659).
Experiment [17] addresses Tyrosine-protein kinase JAK1 (Homo sapiens) (UniProt P23458).
The target of experiment [18] is Casein kinase I isoform gamma-3 (Homo sapiens) (UniProt Q9Y6M4).
Sequence of Casein kinase I isoform gamma-3 (Homo sapiens) (Q9Y6M4 whole entry, looked up, canonical isoform): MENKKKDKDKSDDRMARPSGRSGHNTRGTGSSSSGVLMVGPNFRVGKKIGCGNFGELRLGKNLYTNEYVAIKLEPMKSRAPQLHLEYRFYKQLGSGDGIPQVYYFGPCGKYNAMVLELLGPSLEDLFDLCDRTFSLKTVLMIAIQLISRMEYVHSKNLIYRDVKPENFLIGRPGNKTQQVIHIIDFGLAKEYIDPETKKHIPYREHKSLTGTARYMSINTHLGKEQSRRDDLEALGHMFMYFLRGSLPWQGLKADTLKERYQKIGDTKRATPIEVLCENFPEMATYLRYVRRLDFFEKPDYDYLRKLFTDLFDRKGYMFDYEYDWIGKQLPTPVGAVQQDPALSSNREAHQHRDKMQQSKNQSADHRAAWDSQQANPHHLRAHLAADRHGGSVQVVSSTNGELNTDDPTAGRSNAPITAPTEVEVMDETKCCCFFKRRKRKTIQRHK
Experiment [19] addresses Serine/threonine-protein kinase PLK1 (Homo sapiens) (UniProt P53350).
Experiment [20] concerns the target Serine/threonine-protein kinase PAK 6 (Homo sapiens) (UniProt Q9NQU5).

Each structure is given as a SMILES string.

Sequence of Serine/threonine-protein kinase Chk2 (O96017 whole entry): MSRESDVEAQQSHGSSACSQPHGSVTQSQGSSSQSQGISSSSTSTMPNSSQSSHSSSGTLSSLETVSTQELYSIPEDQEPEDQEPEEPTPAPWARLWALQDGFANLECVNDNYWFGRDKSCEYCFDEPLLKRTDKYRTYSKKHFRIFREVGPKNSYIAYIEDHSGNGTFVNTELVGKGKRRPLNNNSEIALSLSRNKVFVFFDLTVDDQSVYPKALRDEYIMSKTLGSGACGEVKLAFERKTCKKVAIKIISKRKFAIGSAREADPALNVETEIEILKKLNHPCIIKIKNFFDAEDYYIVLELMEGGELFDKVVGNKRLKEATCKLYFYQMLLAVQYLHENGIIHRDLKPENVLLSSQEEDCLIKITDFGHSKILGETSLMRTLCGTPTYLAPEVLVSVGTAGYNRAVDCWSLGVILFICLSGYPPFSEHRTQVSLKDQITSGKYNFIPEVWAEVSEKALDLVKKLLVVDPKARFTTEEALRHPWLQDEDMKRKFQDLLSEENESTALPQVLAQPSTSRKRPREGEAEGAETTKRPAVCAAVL
Sequence of Serine/threonine-protein kinase PLK1 (Homo sapiens) (P53350 whole entry): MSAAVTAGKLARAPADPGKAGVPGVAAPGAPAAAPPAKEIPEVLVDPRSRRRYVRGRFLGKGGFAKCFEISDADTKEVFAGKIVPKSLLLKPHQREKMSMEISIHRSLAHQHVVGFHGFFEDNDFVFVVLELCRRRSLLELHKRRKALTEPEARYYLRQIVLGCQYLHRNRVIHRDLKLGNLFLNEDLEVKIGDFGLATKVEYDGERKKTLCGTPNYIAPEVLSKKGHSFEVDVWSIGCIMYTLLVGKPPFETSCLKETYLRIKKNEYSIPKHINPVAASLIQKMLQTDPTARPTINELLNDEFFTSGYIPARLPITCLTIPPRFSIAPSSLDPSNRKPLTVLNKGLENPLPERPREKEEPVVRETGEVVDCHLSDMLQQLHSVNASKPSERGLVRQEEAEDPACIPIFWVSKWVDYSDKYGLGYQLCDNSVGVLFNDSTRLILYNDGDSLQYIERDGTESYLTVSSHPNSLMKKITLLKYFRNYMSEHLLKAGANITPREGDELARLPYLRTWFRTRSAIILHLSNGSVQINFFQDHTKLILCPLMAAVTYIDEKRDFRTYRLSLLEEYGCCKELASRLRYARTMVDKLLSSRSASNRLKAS
Sequence of Serine/threonine-protein kinase 10 (Homo sapiens) (O94804 whole entry, looked up): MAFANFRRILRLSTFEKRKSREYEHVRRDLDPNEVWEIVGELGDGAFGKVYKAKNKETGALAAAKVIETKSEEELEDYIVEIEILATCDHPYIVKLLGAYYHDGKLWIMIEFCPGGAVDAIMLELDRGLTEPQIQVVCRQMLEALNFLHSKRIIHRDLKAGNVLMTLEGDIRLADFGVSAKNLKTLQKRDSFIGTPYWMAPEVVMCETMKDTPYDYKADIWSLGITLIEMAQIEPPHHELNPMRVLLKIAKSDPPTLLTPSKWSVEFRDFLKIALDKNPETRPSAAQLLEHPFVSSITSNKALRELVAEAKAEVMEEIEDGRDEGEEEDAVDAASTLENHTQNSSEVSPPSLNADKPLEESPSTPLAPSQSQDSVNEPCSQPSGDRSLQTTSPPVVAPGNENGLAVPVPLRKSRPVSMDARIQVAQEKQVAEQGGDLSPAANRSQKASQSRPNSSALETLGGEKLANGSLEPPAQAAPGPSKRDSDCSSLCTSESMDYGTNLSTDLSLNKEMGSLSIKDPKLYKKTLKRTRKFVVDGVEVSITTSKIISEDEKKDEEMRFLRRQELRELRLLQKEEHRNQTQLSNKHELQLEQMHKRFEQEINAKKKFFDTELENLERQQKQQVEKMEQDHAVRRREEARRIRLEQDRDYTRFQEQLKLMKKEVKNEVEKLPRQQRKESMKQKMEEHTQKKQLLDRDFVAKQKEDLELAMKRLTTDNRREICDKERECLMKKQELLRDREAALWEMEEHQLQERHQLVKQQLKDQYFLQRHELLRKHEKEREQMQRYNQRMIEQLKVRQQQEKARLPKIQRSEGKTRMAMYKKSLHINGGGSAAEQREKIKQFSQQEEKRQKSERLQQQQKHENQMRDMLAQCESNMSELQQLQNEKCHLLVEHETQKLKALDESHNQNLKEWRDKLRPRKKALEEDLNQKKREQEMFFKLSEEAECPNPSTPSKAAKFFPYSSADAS
Sequence of Casein kinase I isoform gamma-2 (Homo sapiens) (P78368 whole entry, looked up, canonical isoform): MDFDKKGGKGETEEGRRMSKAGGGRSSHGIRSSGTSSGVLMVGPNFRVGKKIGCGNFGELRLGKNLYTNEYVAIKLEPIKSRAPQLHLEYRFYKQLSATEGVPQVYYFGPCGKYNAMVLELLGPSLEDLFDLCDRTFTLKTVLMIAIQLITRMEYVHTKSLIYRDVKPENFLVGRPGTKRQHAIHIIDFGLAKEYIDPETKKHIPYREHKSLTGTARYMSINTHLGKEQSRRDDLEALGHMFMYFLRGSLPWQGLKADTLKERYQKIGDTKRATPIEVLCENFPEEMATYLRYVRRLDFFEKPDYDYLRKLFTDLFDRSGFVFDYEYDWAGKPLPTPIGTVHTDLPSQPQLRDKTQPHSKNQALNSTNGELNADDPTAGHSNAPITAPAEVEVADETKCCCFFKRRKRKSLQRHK

The ΔTm is the shift of the melting midpoint relative to a reference. Take `c1ccc(-c2n[nH]c3c2oc2ccccc23)cc1`: the ΔTm came to 1.9 °C in experiment [1]; 1.1 °C in experiment [2]; 0.7 °C in experiment [3]; 0.3 °C in experiment [4]; 1.8 °C in [5]; 3.4 °C in experiment [6]. Also, the shift in melting temperature (ΔTm) in experiment [7] is 0.1 °C; in experiment [8] it was 0 °C; in experiment [9], 0.7 °C; in [10] it was -0.5 °C; in experiment [11], 0.5 °C; in [12], 1 °C. The ΔTm worked out at 0.3 °C in experiment [13]; 1 °C in experiment [14]; 1.2 °C in experiment [15]; 0.1 °C in [16]; 5.2 °C in [17]; 0.5 °C in experiment [18]. Also, the ΔTm in experiment [19] was 2.2 °C; in [20] it was -0.3 °C.
As to `O=C1NC(=O)C(c2cn(CCCn3ccnc3)c3ccccc23)=C1Nc1ccccc1`, the thermal shift (ΔTm) was 2 °C in experiment [1]; 1.5 °C in [2]; 1.5 °C in experiment [3]; 0.1 °C in experiment [4]; 1.6 °C in experiment [5]; 3.1 °C in experiment [6]. In addition, the ΔTm in [7] is 0.3 °C; in [8], 3 °C; in experiment [9], 0.4 °C; in [10], 3.1 °C; in [11], 0.4 °C; in [12] it was 1 °C. Further, the ΔTm in experiment [13] was found to be 1.7 °C; in experiment [14], 0.5 °C; in [15] it was 0.8 °C; in experiment [16], 0.6 °C; in experiment [17], 1.1 °C; in [18], 0.5 °C. Besides, the thermal shift (ΔTm) in experiment [19] was 1.2 °C; in experiment [20], -0.4 °C.
As for `CC(=O)O/N=C1/C(=C2/C(=O)Nc3cc(Br)ccc32)Nc2ccccc21` [6-BROMOINDIRUBIN-3'-ACETOXIME], the ΔTm in experiment [1] is 0 °C; in [2], -1.4 °C; in [3] it was 0.1 °C; in [4] it was 0.9 °C; in [5], 0.7 °C; in experiment [6], 0.1 °C. In addition, the thermal shift (ΔTm) in [7] was 3.2 °C; in [8], -0.4 °C; in [9] it was 3.2 °C; in experiment [10], -0.2 °C; in [11] it was 2 °C; in [12], 0.5 °C. Also, the ΔTm was found to be 0.9 °C in experiment [13]; 3 °C in [14]; 6.7 °C in [15]; 0.3 °C in experiment [16]; 2.5 °C in experiment [17]; 0.5 °C in experiment [18]. Besides, the ΔTm came out at 0.4 °C in [19] and 0.3 °C in experiment [20].
In the case of `CCOC(=O)c1c(C)[nH]c(/C=C2\C(=O)Nc3ccccc32)c1C`, the thermal shift (ΔTm) in experiment [1] is 1.6 °C; in experiment [2], 0.1 °C; in experiment [3], 0.7 °C; in experiment [4], -0.5 °C; in [5], -2.2 °C; in experiment [6], -0.7 °C. Further, the ΔTm was 0.5 °C in [7]; -0.1 °C in experiment [8]; -3.4 °C in experiment [9]; -0.1 °C in experiment [10]; 0.5 °C in [11]; 0.4 °C in experiment [12]. Further, the ΔTm in [13] is -0.6 °C; in experiment [14], 4.5 °C; in experiment [15] it was 2.3 °C; in experiment [16], -0.1 °C; in [17], 8.5 °C; in experiment [18], 0.3 °C. The figures for the ΔTm in experiment [19] and in experiment [20] were -0.6 °C and -0.5 °C, respectively.
For the compound `COc1cc(/C=C/C(=O)CC(=O)/C=C/c2ccc(O)c(OC)c2)ccc1O` [CURCUMIN], the ΔTm in [1] turned out to be 6.1 °C; in [2], 2.9 °C; in [3], 5.4 °C; in [4], 1.3 °C; in experiment [5], 1.3 °C; in [6], 2.9 °C. Moreover, the ΔTm was 3.9 °C in experiment [7]; 3.6 °C in [8]; 1.9 °C in experiment [9]; 2.5 °C in experiment [10]; -0.1 °C in experiment [11]; 2.3 °C in experiment [12]. The thermal shift (ΔTm) is -0.1 °C in experiment [13]; 7.4 °C in [14]; 3.3 °C in experiment [15]; 1.8 °C in experiment [16]; 4.1 °C in experiment [17]; 0.3 °C in [18]. The figures for the ΔTm in [19] and in [20] were 2 °C and 1.6 °C, respectively.
In the case of `O=C1c2ccccc2-[n+]2ccc3c([nH]c4ccccc43)c21` [FASCAPLYSIN CHLORIDE], the ΔTm in experiment [1] was -1.8 °C; in experiment [2], -2.4 °C; in [3] it was 4.9 °C; in experiment [4], 0.3 °C; in [5] it was -0.4 °C; in [6] it was -2.5 °C. Further, the shift in melting temperature (ΔTm) is -0.5 °C in experiment [7]; -0.9 °C in experiment [8]; 0 °C in [9]; -0.8 °C in [10]; 0 °C in experiment [11]; -0.3 °C in experiment [12]. The ΔTm in experiment [13] is -0.5 °C; in [14] it was 1.5 °C; in [15], -0.1 °C; in experiment [16] it was -1.9 °C; in experiment [17], -1.5 °C; in [18], -0.8 °C. For the same compound, the ΔTm was 0.8 °C in experiment [19] and -0.9 °C in [20].
For the compound `CC(C)(C)n1nc(-c2ccc(Cl)cc2)c2c(N)ncnc21`, the ΔTm is 4.7 °C in experiment [1]; 0.2 °C in experiment [2]; 0.4 °C in experiment [3]; 0.7 °C in experiment [4]; -0.2 °C in [5]; -0.3 °C in experiment [6]. The ΔTm in [7] was -0.4 °C; in [8] it was 0.7 °C; in [9], 0.7 °C; in experiment [10], 0.1 °C; in experiment [11], 0.7 °C; in [12], 0.8 °C. Further, the ΔTm is 0.5 °C in [13]; 0.1 °C in experiment [14]; 4.1 °C in [15]; -0.2 °C in experiment [16]; 0.3 °C in experiment [17]; 0.6 °C in experiment [18]. Also, the shift in melting temperature (ΔTm) in [19] was 0.9 °C; in experiment [20], -0.1 °C.
